# Laboratory results as given in ChEMBL document CHEMBL3102801, “Synthesis and antiproliferative activity of new derivatives containing the polycyclic system 5,7:7,13-dimethanopyrazolo[3,4-b]pyrazolo[3',4':2,3]azepino[4,5-f]azocine” (Eur J Med Chem, 2014).
# Activity calls are given as the source filed them. The rule behind the calls is not given here.
# How the values were obtained:
# [1] = Growth inhibition of human RXF393 cells after 48 hrs by sulforhodamine B assay; assay type: functional; details: RXF 393, 48 h
# K562 = assay: Growth inhibition of human K562 cells after 48 hrs by sulforhodamine B assay; assay type: functional; details: K562, 48 h
# CCRF-CEM = assay: Growth inhibition of human CCRF-CEM cells after 48 hrs by sulforhodamine B assay; assay type: functional
# [2] = target: T1, Retinoblastoma-associated protein (Homo sapiens) (UniProt P06400); assay: Inhibition of pRb p110 phosphorylation in human MDA-MB-231 cells at 5 to 10 uM after 48 hrs by Western blotting relative to unphosphorylated p105; assay type: cell-based
# T1 sequence (whole entry): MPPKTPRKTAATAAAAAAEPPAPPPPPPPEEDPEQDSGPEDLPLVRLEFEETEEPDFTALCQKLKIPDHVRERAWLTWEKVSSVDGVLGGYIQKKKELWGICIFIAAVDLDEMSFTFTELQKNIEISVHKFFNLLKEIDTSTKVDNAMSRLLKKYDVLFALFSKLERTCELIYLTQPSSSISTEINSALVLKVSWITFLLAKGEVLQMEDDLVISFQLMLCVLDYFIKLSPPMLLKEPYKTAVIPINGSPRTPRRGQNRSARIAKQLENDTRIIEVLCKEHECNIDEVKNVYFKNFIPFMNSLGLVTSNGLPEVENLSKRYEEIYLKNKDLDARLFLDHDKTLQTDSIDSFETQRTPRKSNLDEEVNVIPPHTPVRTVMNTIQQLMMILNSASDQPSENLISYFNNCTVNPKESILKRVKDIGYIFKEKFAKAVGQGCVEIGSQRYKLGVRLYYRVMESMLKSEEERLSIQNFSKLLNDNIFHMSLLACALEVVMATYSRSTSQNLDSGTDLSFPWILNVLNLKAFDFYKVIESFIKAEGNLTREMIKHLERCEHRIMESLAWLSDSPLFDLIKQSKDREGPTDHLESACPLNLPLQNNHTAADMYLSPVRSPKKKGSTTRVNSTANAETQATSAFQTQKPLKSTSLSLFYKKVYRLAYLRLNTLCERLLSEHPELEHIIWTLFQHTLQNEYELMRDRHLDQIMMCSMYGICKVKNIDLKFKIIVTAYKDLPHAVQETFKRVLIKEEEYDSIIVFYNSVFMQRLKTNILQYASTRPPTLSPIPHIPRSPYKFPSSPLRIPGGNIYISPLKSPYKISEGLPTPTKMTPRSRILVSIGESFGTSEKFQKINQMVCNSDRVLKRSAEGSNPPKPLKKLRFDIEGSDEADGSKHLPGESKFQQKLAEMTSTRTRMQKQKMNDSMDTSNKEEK
# MDA-MB-468 = assay: Growth inhibition of human MDA-MB-468 cells after 48 hrs by sulforhodamine B assay; assay type: functional; details: MDA-MB-468, 48 h
# [3] = Therapeutic index, ratio of IC50 for human HeDe cells to IC50 for human MDA-MB-231 cells; assay type: cell-based; details: HeDe cells versus MDA-MB-231 cells, read-out: TI
# MDA-MB-231 = assay: Growth inhibition of human MDA-MB-231 cells after 48 hrs by sulforhodamine B assay; assay type: functional; details: MDA-MB-231, 48 h
# MCF7 = assay: Growth inhibition of human MCF7 cells after 48 hrs by sulforhodamine B assay; assay type: functional; details: MCF7, 48 h
# IGROV-1 = assay: Growth inhibition of human IGROV1 cells after 48 hrs by sulforhodamine B assay; assay type: functional; details: IGROV-1, 48 h
structure (smiles),measurement,setting,value
C=C1c2c(C)nn(-c3ccc(OC)cc3)c2N(C)C23CC1C1(C)c4c(C)nn(-c5ccc(OC)cc5)c4N(C)C(C)(CC12)C3 (centres undefined),GI50,[1],1900 nM
same,GI50,K562,3.6 µM
same,GI50,CCRF-CEM,3.41 µM
same,inhibition,[2],Active
same,GI50,MDA-MB-468,2500 nM
same,selectivity ratio,[3],24.4
same,GI50,MDA-MB-231,3.11 µM
same,GI50,MCF7,2690 nM
same,GI50,IGROV-1,7.54 µM
